Data reported in patent US10368545B2, “Substituted 2-thioimidazolylcarboxamides as pesticides” (BAYER CROPSCIENCE AKTIENGESELLSCHAFT, priority 2015, dated 2019).

Test system: not listed separately
Experiment: log P by HPLC on reversed-phase C18 columns (OECD Guideline 117)
Type: physicochemical
Conditions: method [a]
Method: The log P values were determined in accordance with OECD Guideline 117 (EC Directive 92/69/EEC) by HPLC (high-performance liquid chromatography) using reversed-phase (RP) columns (C18), by the following methods:
[a] The LC-MS determination in the acidic range was carried out at pH 2.7 with 0.1% aqueous formic acid and acetonitrile (contains 0.1% formic acid) as mobile phases; linear gradient from 10% acetonitrile to 95% acetonitrile.
[b] LC-MS determination in the neutral range was carried out at pH 7.8 with 0.001 molar aqueous ammonium hydrogencarbonate solution and acetonitrile as mobile phases; linear gradient from 10% acetonitrile to 95% acetonitrile.

Row | Structure (SMILES) | logP[a]
1 | CN(C(=O)c1cnc(Sc2ccccc2S(=O)(=O)N(C)C)n1C)c1cccnc1 [I-A-69] | 1.56
2 | CN(C(=O)c1cnc(Sc2ccc(Cl)nc2)n1C)c1cccnc1 [I-A-70] | 1.45
3 | CN(C(=O)c1cnc(Sc2ccccc2F)n1C)c1cccnc1 [I-A-71] | 1.68
4 | CN(C(=O)c1cnc(S(=O)(=O)c2ccc(F)cc2)n1C)c1cccnc1 [I-A-82] | 1.53
5 | CN(C(=O)c1cnc([S+]([O-])c2ccc(F)cc2)n1C)c1cccnc1 (stereo not shown) [I-A-84] | 1.22
6 | CN(C(=O)c1cnc([S+]([O-])c2ccccn2)n1C)c1cccnc1 (stereo not shown) [I-A-86] | 0.59
7 | CN(C(=O)c1cnc([S+]([O-])c2ccccc2)n1C)c1cccnc1 (stereo not shown) [I-A-87] | 1.04
8 | CN(C(=O)c1cnc(Sc2ccc(F)cn2)n1C)c1cccnc1 [I-A-94] | 1.18
9 | CN(C(=O)c1cnc([S+]([O-])c2cccc(C(F)(F)F)c2)n1C)c1ccc[n+]([O-])c1 (stereo not shown) [I-A-95] | 1.41
10 | CN(C(=O)c1cnc([S+]([O-])c2cccc(C(F)(F)F)c2)n1C)c1cccnc1 (stereo not shown) [I-A-96] | 1.74
11 | CN(C(=O)c1cnc([S+]([O-])c2ncccn2)n1C)c1cccnc1 (stereo not shown) [I-A-97] | 0.45
12 | CN(C(=O)c1cnc(Sc2nccc(C(F)(F)F)n2)n1C)c1cccnc1 [I-A-100] | 1.58
13 | Cc1ccnc(Sc2ncc(C(=O)N(C)c3cccnc3)n2C)n1 [I-A-101] | 1.00
14 | COc1cc(OC)nc(Sc2ncc(C(=O)N(C)c3cccnc3)n2C)n1 [I-A-102] | 1.61
15 | Cc1cnc(Sc2ncc(C(=O)N(C)c3cccnc3)n2C)nc1 [I-A-104] | 0.97
16 | COc1ccnc(Sc2ncc(C(=O)N(C)c3cccnc3)n2C)n1 [I-A-106] | 1.20
17 | Cc1cccc(Sc2ncc(C(=O)N(C)c3cccnc3)n2C)n1 [I-A-108] | 1.28

Same assay, conditions: method [b]

Row | Structure (SMILES) | logP[b]
18 | CN(C(=O)c1cnc(Sc2ccccc2S(=O)(=O)N(C)C)n1C)c1cccnc1 [I-A-69] | 1.63
19 | CN(C(=O)c1cnc(Sc2ccc(Cl)nc2)n1C)c1cccnc1 [I-A-70] | 1.52
20 | CN(C(=O)c1cnc(Sc2ccccc2F)n1C)c1cccnc1 [I-A-71] | 1.78
21 | CN(C(=O)c1cnc(S(=O)(=O)c2ccc(F)cc2)n1C)c1cccnc1 [I-A-82] | 1.62
22 | CN(C(=O)c1cnc([S+]([O-])c2ccc(F)cc2)n1C)c1cccnc1 (stereo not shown) [I-A-84] | 1.27
23 | CN(C(=O)c1cnc([S+]([O-])c2ccccn2)n1C)c1cccnc1 (stereo not shown) [I-A-86] | 0.80
24 | CN(C(=O)c1cnc([S+]([O-])c2ccccc2)n1C)c1cccnc1 (stereo not shown) [I-A-87] | 1.20
25 | CN(C(=O)c1cnc(Sc2ccc(F)cn2)n1C)c1cccnc1 [I-A-94] | 1.39
26 | CN(C(=O)c1cnc([S+]([O-])c2cccc(C(F)(F)F)c2)n1C)c1ccc[n+]([O-])c1 (stereo not shown) [I-A-95] | 1.39
27 | CN(C(=O)c1cnc([S+]([O-])c2cccc(C(F)(F)F)c2)n1C)c1cccnc1 (stereo not shown) [I-A-96] | 1.80
28 | CN(C(=O)c1cnc([S+]([O-])c2ncccn2)n1C)c1cccnc1 (stereo not shown) [I-A-97] | 0.48
29 | COc1cc(OC)nc(Sc2ncc(C(=O)N(C)c3cccnc3)n2C)n1 [I-A-102] | 1.79
30 | Cc1cccc(Sc2ncc(C(=O)N(C)c3cccnc3)n2C)n1 [I-A-108] | 1.43

Test system: green peach aphid (Myzus persicae)
Experiment: Myzus persicae spray test (Chinese cabbage leaf discs)
Type: in vivo
Conditions: application rate 500 g/ha; after 5 or 6 days; Chinese cabbage leaf discs
Method: Myzus persicae—Spray Test
Solvent: 78 parts by weight of acetone • • 1.5 parts by weight of dimethylformamide
(§1) Emulsifier: alkylaryl polyglycol ether
(§2) To produce a suitable active compound preparation, 1 part by weight of active compound is dissolved using the stated parts by weight of solvent and made up with water containing an emulsifier concentration of 1000 ppm until the desired concentration is attained. To produce further test concentrations, the preparation is diluted with emulsifier-containing water.
Discs of Chinese cabbage leaves (Brassica pekinensis) infested by all stages of the green peach aphid (Myzus persicae) are sprayed with an active compound preparation of the desired concentration.
After 5 or 6 days, the efficacy in % is determined. 100% means that all the aphids were killed; 0% means that no aphids were killed.

Row | Structure (SMILES) | efficacy (aphids killed) [%]
31 | CN(C(=O)c1cnc(Sc2ccccc2S(=O)(=O)N(C)C)n1C)c1cccnc1 [I-A-69] | 100
32 | CN(C(=O)c1cnc(Sc2ccc(Cl)nc2)n1C)c1cccnc1 [I-A-70] | 100
33 | CN(C(=O)c1cnc(Sc2ccccc2F)n1C)c1cccnc1 [I-A-71] | 100
34 | CN(C(=O)c1cnc(S(=O)(=O)c2ccc(F)cc2)n1C)c1cccnc1 [I-A-82] | 90
35 | CN(C(=O)c1cnc([S+]([O-])c2ccc(F)cc2)n1C)c1cccnc1 (stereo not shown) [I-A-84] | 90
36 | CN(C(=O)c1cnc([S+]([O-])c2ccccn2)n1C)c1cccnc1 (stereo not shown) [I-A-86] | 90
37 | CN(C(=O)c1cnc([S+]([O-])c2ccccc2)n1C)c1cccnc1 (stereo not shown) [I-A-87] | 90
38 | CN(C(=O)c1cnc(Sc2ccc(F)cn2)n1C)c1cccnc1 [I-A-94] | 100
39 | CN(C(=O)c1cnc([S+]([O-])c2cccc(C(F)(F)F)c2)n1C)c1ccc[n+]([O-])c1 (stereo not shown) [I-A-95] | 100
40 | CN(C(=O)c1cnc([S+]([O-])c2cccc(C(F)(F)F)c2)n1C)c1cccnc1 (stereo not shown) [I-A-96] | 100
41 | CN(C(=O)c1cnc([S+]([O-])c2ncccn2)n1C)c1cccnc1 (stereo not shown) [I-A-97] | 90
42 | CN(C(=O)c1cnc(Sc2nccc(C(F)(F)F)n2)n1C)c1cccnc1 [I-A-100] | 90
43 | Cc1ccnc(Sc2ncc(C(=O)N(C)c3cccnc3)n2C)n1 [I-A-101] | 100
44 | COc1cc(OC)nc(Sc2ncc(C(=O)N(C)c3cccnc3)n2C)n1 [I-A-102] | 100
45 | Cc1cnc(Sc2ncc(C(=O)N(C)c3cccnc3)n2C)nc1 [I-A-104] | 100
46 | COc1ccnc(Sc2ncc(C(=O)N(C)c3cccnc3)n2C)n1 [I-A-106] | 100
47 | Cc1cccc(Sc2ncc(C(=O)N(C)c3cccnc3)n2C)n1 [I-A-108] | 100

Test system: green peach aphid (Myzus persicae)
Experiment: Contrasting example: Myzus persicae spray test (MYZUPE)
Type: in vivo
Conditions: MYZUPE, 100 g ai/ha, 5 dat
Method: Myzus persicae—Spray Test (MYZUPE)
Solvents: 78.0 parts by weight of acetone • • 1.5 parts by weight of dimethylformamide
as §1, §2
Discs of Chinese cabbage leaves (Brassica pekinensis), infested by all stages of the green peach aphid (Myzus persicae) are sprayed with an active compound preparation of the desired concentration.
After the desired period of time, the efficacy in % is determined. 100% means that all aphids were killed; 0% means that no aphids were killed.

Row | Structure (SMILES) | % efficacy [%]
48 | CN(C(=O)c1cnc([S+]([O-])c2cccc(C(F)(F)F)c2)n1C)c1ccc[n+]([O-])c1 (stereo not shown) [I-A-95] | 90
49 | CN(C(=O)c1cnc([S+]([O-])c2cccc(C(F)(F)F)c2)n1C)c1cccnc1 (stereo not shown) [I-A-96] | 90

Same assay, conditions: MYZUPE, 100 g ai/ha, 6 dat

Row | Structure (SMILES) | % efficacy [%]
50 | CN(C(=O)c1cnc(Sc2ccccc2S(=O)(=O)N(C)C)n1C)c1cccnc1 [I-A-69] | 70
51 | CN(C(=O)c1cnc(Sc2ccc(Cl)nc2)n1C)c1cccnc1 [I-A-70] | 70
52 | CN(C(=O)c1cnc(Sc2ccccc2F)n1C)c1cccnc1 [I-A-71] | 70
53 | CN(C(=O)c1cnc(S(=O)(=O)c2ccc(F)cc2)n1C)c1cccnc1 [I-A-82] | 90
54 | CN(C(=O)c1cnc([S+]([O-])c2ccc(F)cc2)n1C)c1cccnc1 (stereo not shown) [I-A-84] | 70
55 | CN(C(=O)c1cnc([S+]([O-])c2ccccn2)n1C)c1cccnc1 (stereo not shown) [I-A-86] | 90
56 | CN(C(=O)c1cnc([S+]([O-])c2ccccc2)n1C)c1cccnc1 (stereo not shown) [I-A-87] | 90
57 | CN(C(=O)c1cnc(Sc2ccc(F)cn2)n1C)c1cccnc1 [I-A-94] | 90
58 | CN(C(=O)c1cnc([S+]([O-])c2ncccn2)n1C)c1cccnc1 (stereo not shown) [I-A-97] | 70
59 | CN(C(=O)c1cnc(Sc2nccc(C(F)(F)F)n2)n1C)c1cccnc1 [I-A-100] | 90
60 | Cc1ccnc(Sc2ncc(C(=O)N(C)c3cccnc3)n2C)n1 [I-A-101] | 90
61 | COc1cc(OC)nc(Sc2ncc(C(=O)N(C)c3cccnc3)n2C)n1 [I-A-102] | 90
62 | Cc1cnc(Sc2ncc(C(=O)N(C)c3cccnc3)n2C)nc1 [I-A-104] | 90
63 | COc1ccnc(Sc2ncc(C(=O)N(C)c3cccnc3)n2C)n1 [I-A-106] | 90
64 | Cc1cccc(Sc2ncc(C(=O)N(C)c3cccnc3)n2C)n1 [I-A-108] | 70
